Experimental data as given in US20070033061A1 (priority 2005, published 2007).
Values after ≈ are worked out from the molar mass of the structure shown.

How the values were obtained:
Type in all cases: cell-based
[1] = test system: membrane permeabilized E. coli; conditions: for enhancement of the activity of ciprofloxacin: at 25 μM
[2] = test system: E. coli ΔrecB strains
[3] = test system: E. coli strain MG1655 and mutated strains; test: microbe, parasite or virus in culture
[4] = test system: E. coli wild-type
[5] = test system: E. coli MG1655 loss of function strains; test: microbe, parasite or virus in culture
[6] = test system: P. aeruginosa strains RTC1014-RTC1019
[7] = test system: E. coli strains RTC0141-RTC0148

Molecule: NCCCCCCNc1ccnc2cc(Cl)ccc12 [Formula III]
- ciprofloxacin sensitization [1]: enhanced ciprofloxacin sensitivity

Molecule: Cn1c2ccccc2n2c3ncccc3c(=O)c(C#N)c12 [Formula IIb]
- enhancement of the activity of ciprofloxacin [1]: enhanced the activity of ciprofloxacin

Molecule: Cn1c2ccccc2n2c3cnccc3c(=O)c(C#N)c12 [Formula IIc]
- enhancement of the activity of ciprofloxacin [1]: enhanced the activity of ciprofloxacin

Molecule: Nc1ccc2noc3c2c1C(=O)c1ccccc1-3 [Formula Ia]
- MIC shift in ciprofloxacin responsiveness [1]: 10 ×

Molecule: CO[C@@]12[C@H](COC(N)=O)C3=C(C(=O)C(C)=C(N)C3=O)N1C[C@@H]1N[C@@H]12 [Mitomycin C]
- Mitomycin C MIC lower compared to recB+ strains [2]: about 8 fold

Molecule: O=C(O)c1cn(C2CC2)c2cc(N3CCNCC3)c(F)cc2c1=O [ciprofloxacin]
- ciprofloxacin MIC, gyrA S83Δ [3]: 0.25 µg/mL
- MIC ([3]; Escherichia coli, MG1655, read-out: ciprofloxacin MIC): < 0.001 µg/mL
- cells killed [4]: 99%
- ciprofloxacin MIC, gyrA S83Δ [5]: 0.25 µg/mL
- MIC ([5]; Escherichia coli, MG1655, read-out: ciprofloxacin MIC, gyrA S83L): 0.45 µg/mL (≈ 1.36 µM)

B1: lambda gam: protein used by λ phage to inhibit E. coli RecB; overexpressed from an arabinose-inducible vector (protein, UniProt P03702 1-138, looked up)
Host-nuclease inhibitor …: MDINTETEIKQKHSLTPFPVFLISPAFRGRYFHSYFRSSAMNAYYIQDRLEAQSWARHYQQLAREEKEAELADDMEKGLPQHLFESLCIDHLQRHGASKKSITRAFDDDVEFQERMAEHIRYMVETIAHHQVDIDSEV
- decrease in the ciprofloxacin MIC on overexpression of lambda gam [6]: 2-4 fold
- effect of lambda gam overexpression on ciprofloxacin sensitivity [6]: no effect
- decrease in the ciprofloxacin IC50 on overexpression of lambda gam [7]: 5-8 fold
- effect of lambda gam overexpression on ciprofloxacin sensitivity [7]: no effect
